Molecules are shown by their SMILES.

Experiment [1] addresses T1, Alpha-2A adrenergic receptor (Homo sapiens, UniProt P08913).
T1 sequence (P08913 whole entry): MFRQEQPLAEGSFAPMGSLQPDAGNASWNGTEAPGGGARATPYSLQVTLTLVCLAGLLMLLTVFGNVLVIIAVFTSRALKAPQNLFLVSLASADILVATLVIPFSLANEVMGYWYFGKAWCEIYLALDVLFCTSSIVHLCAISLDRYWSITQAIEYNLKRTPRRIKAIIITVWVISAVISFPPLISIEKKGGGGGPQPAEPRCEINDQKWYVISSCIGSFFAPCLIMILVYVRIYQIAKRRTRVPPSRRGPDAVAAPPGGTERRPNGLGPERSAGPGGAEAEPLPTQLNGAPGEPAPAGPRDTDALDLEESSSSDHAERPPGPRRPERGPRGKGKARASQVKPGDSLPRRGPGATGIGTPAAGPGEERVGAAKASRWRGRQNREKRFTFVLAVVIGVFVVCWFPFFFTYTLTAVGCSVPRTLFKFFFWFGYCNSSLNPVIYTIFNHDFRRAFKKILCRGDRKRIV
The class given is functional, cell-based.

Experiment [2] concerns the target Glutamate receptor ionotropic, NMDA 1 (Rattus norvegicus, UniProt P35439).
For experiment [3], the target named is 5-hydroxytryptamine receptor 2B (Homo sapiens, UniProt P41595). The class given is functional, cell-based.
Experiment [4] addresses T2, Neuropeptide Y receptor type 1 (Homo sapiens, UniProt P25929).
T2 sequence (P25929 whole entry): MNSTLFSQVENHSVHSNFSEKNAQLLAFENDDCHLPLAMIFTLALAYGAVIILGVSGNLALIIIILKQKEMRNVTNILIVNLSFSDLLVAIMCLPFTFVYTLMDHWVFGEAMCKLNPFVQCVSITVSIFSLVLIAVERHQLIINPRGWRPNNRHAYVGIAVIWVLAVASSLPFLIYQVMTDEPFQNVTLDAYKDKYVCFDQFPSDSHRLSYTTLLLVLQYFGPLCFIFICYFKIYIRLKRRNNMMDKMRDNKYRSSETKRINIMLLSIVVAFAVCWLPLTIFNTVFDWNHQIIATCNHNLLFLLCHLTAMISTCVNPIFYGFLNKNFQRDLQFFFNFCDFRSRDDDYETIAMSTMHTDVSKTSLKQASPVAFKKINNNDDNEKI

The target of a further experiment is T3, Progesterone receptor (Homo sapiens, UniProt P06401).
T3 sequence (P06401 whole entry): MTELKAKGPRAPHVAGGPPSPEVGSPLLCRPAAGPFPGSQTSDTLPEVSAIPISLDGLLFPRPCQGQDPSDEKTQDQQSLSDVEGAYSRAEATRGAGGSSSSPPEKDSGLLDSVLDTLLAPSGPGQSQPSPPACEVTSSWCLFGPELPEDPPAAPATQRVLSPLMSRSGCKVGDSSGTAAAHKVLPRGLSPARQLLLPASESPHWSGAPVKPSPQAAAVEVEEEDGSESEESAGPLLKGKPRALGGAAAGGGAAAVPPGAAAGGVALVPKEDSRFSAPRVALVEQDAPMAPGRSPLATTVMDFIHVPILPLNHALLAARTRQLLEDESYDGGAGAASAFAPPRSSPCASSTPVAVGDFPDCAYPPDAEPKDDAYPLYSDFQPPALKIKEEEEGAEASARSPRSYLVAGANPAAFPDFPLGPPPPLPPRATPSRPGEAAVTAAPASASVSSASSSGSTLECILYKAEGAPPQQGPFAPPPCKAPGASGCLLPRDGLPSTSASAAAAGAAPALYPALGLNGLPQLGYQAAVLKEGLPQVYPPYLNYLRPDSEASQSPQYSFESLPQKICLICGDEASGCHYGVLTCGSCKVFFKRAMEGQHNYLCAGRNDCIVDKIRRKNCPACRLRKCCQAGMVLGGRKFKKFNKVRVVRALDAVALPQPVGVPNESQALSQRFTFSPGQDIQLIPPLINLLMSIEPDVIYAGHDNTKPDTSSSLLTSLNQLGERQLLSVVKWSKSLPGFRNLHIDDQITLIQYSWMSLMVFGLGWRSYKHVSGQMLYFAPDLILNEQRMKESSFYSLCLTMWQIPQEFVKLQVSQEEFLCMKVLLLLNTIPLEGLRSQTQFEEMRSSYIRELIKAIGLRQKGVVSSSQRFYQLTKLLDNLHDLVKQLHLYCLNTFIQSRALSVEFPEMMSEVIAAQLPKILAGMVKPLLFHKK
The class given is functional.

Experiment [5] addresses T4, Equilibrative nucleoside transporter 1 (Homo sapiens, UniProt Q99808).
T4 sequence (Q99808 whole entry): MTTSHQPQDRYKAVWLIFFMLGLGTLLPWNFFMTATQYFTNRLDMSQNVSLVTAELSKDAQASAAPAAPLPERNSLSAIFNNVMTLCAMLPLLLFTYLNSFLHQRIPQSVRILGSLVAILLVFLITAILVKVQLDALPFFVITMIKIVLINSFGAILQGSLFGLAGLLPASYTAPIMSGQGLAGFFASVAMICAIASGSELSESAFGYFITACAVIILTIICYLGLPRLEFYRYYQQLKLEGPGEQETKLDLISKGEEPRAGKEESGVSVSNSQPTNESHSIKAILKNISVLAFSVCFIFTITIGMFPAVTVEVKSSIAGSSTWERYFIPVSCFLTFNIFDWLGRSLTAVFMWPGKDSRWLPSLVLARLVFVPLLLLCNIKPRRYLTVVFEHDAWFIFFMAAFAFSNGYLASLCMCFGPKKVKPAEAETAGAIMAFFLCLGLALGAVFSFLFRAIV

Experiment [6] has as its target Sodium-dependent serotonin transporter (Homo sapiens, UniProt P31645).
Note: assay procedure not described here.

Chain of Sodium-dependent serotonin transporter (P31645 whole entry): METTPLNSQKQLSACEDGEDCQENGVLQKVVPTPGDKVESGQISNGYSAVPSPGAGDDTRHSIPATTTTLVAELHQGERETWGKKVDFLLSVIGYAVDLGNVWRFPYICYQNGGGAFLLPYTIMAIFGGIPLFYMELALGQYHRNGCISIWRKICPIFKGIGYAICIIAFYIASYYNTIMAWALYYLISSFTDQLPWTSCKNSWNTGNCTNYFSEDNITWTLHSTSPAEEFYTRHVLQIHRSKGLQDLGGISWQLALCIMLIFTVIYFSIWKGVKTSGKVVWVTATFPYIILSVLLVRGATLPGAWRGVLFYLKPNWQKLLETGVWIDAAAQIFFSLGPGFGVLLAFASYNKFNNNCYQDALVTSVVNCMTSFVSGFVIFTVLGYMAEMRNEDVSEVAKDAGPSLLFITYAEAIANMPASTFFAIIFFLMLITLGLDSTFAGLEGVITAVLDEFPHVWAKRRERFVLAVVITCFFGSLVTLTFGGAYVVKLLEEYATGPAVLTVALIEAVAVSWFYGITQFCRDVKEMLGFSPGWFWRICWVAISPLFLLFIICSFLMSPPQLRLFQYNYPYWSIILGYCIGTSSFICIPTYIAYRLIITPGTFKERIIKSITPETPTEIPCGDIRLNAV
Chain of 5-hydroxytryptamine receptor 2B (P41595 whole entry): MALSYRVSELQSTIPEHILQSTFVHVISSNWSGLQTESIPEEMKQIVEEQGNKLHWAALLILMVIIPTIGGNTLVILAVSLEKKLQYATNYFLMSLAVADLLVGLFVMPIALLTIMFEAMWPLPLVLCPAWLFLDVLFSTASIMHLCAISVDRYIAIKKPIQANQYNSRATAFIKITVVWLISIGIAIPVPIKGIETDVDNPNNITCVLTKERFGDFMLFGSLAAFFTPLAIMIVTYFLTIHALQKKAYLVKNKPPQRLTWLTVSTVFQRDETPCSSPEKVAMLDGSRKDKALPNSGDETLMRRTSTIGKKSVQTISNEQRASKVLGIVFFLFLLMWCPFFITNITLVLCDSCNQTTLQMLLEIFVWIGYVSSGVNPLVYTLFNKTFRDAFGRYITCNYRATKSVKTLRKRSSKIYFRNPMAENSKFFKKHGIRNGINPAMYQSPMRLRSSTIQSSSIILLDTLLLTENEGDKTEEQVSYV

Turning to `COc1ccc(-n2nc(C(N)=O)c3c2C(=O)N(c2ccc(N4CCCCC4=O)cc2)CC3)cc1` [APIXABAN], the half-maximal activity concentration (AC50) (in general, the midpoint of the concentration-response curve, whichever way the signal moves) was more than 30 µM in experiment [1]; more than 30 µM in experiment [2]; more than 30 µM in experiment [3]; more than 30 µM in experiment [4]; more than 30 µM at Progesterone receptor; 26 µM in experiment [5]. Moreover, the AC50 in experiment [6] was more than 30 µM.
As for `CCN(CC)CCCN(c1ccccc1)C1Cc2ccccc2C1` [APRINDINE], the AC50 (in experiment [1]; in experiment [2]; in experiment [3]; in experiment [4]; at Progesterone receptor; in experiment [5]) was more than 30 µM throughout. The compound also registered an AC50 in experiment [6] of 3.3 µM.
Consider `C[C@@H](Cc1ccccc1)N(C)Cc1ccccc1` [BENZPHETAMINE], for which the AC50 in experiment [1] was more than 10 µM; in experiment [2], more than 10 µM; in experiment [3], more than 10 µM; in experiment [4], more than 10 µM; on Progesterone receptor, more than 10 µM; in experiment [5], more than 30 µM. Further, the AC50 in experiment [6] came out at 0.075 µM.
As for `CO/N=C(\C(=O)N[C@@H]1C(=O)N2C(C(=O)O)=C(CSc3nc(C)c(CC(=O)O)s3)CS[C@H]12)c1csc(N)n1` [CEFODIZIME], the AC50 (in experiment [1]; in experiment [2]; in experiment [3]; in experiment [4]; on Progesterone receptor; in experiment [5]) was more than 30 µM in each case. The compound also returned a half-maximal activity concentration (AC50) in experiment [6] of more than 30 µM.
Turning to `CO/N=C(\C(=O)N[C@@H]1C(=O)N2C(C(=O)[O-])=C(C[n+]3ccc(N)n3CCO)CS[C@H]12)c1csc(N)n1` [CEFOSELIS], the AC50 (in experiment [1]; in experiment [2]; in experiment [3]; in experiment [4]; on Progesterone receptor; in experiment [5]) was more than 30 µM throughout. Further, the AC50 in experiment [6] was more than 30 µM.
For `CC(=O)OCC1=C(C(=O)O)N2C(=O)[C@@H](NC(=O)Cc3cccs3)[C@H]2SC1` [CEPHALOTHIN], the concentration at half-maximal activity (AC50) (in experiment [1]; in experiment [2]; in experiment [3]; in experiment [4]; at Progesterone receptor; in experiment [5]) was more than 30 µM throughout. The AC50 in experiment [6] is more than 30 µM.
As for `CC(=O)OCC1=C(C(=O)O)N2C(=O)[C@@H](NC(=O)CSc3ccncc3)[C@H]2SC1` [CEPHAPIRIN], the AC50 in experiment [1] was more than 10 µM; in experiment [2] it was more than 10 µM; in experiment [3], more than 10 µM; in experiment [4] it was more than 10 µM; on Progesterone receptor, more than 30 µM; in experiment [5], more than 10 µM. The concentration at half-maximal activity (AC50) in experiment [6] was more than 10 µM.
Consider `CC1=C(C(=O)O)N2C(=O)[C@@H](NC(=O)[C@H](N)C3=CCC=CC3)[C@H]2SC1` [CEPHRADINE], for which the AC50 (in experiment [1]; in experiment [2]; in experiment [3]; in experiment [4]; at Progesterone receptor; in experiment [5]) was more than 30 µM throughout. The AC50 in experiment [6] is more than 30 µM.
As to `COc1ccc(C(Cl)=C(c2ccc(OC)cc2)c2ccc(OC)cc2)cc1` [CHLOROTRIANISENE], the half-maximal activity concentration (AC50) (in experiment [1]; in experiment [2]; in experiment [3]; in experiment [4]; at Progesterone receptor; in experiment [5]) was more than 30 µM throughout. Further, the concentration at half-maximal activity (AC50) in experiment [6] was more than 30 µM.
As for `CCCO[C@H]1[C@@H]([C@@H](COCc2ccc(Cl)cc2)OCc2ccc(Cl)cc2)OC(OCC)[C@@H]1O` (some centres undefined) [CLOBENOSIDE], the AC50 (in experiment [1]; in experiment [2]; in experiment [3]; in experiment [4]; on Progesterone receptor; in experiment [5]) was more than 30 µM each time. This compound also gave an AC50 in experiment [6] of more than 30 µM.
For the compound `Nc1nc(Cl)nc2c1ncn2[C@@H]1O[C@H](CO)[C@@H](O)[C@@H]1F` [CLOFARABINE], the AC50 in experiment [1] is more than 10 µM; in experiment [2], more than 10 µM; in experiment [3], more than 30 µM; in experiment [4], more than 30 µM; at Progesterone receptor, more than 30 µM; in experiment [5] it was more than 30 µM. Besides, the AC50 in experiment [6] was more than 30 µM.
In the case of `C=C(c1ccccc1OCc1cccc(Cl)c1)n1ccnc1` [CROCONAZOLE], the AC50 in experiment [1] was more than 10 µM; in experiment [2], more than 10 µM; in experiment [3], more than 10 µM; in experiment [4], more than 30 µM; on Progesterone receptor it was more than 30 µM; in experiment [5] it was more than 30 µM. The compound further registered an AC50 in experiment [6] of 16.8 µM.
As to `CN(C)CCOC(=O)C(c1ccccc1)C1(O)CCCC1` (centres undefined) [CYCLOPENTOLATE], the AC50 in experiment [1] was more than 10 µM; in experiment [2] it was more than 10 µM; in experiment [3], more than 10 µM; in experiment [4], more than 10 µM; on Progesterone receptor it was more than 10 µM; in experiment [5], more than 30 µM. For the same compound, the AC50 in experiment [6] was more than 30 µM.
As for `CCCCCCOC(=O)NC(=N)c1ccc(NCc2nc3cc(C(=O)N(CCC(=O)OCC)c4ccccn4)ccc3n2C)cc1` [DABIGATRAN ETEXILATE], the AC50 (in experiment [1]; in experiment [2]; in experiment [3]; in experiment [4]; on Progesterone receptor; in experiment [5]) was more than 30 µM in each case. For the same compound, in experiment [6], the AC50 is more than 30 µM.
As to `COC(=O)[C@H]1[C@H]2C[C@@H]3c4[nH]c5ccccc5c4CCN3C[C@H]2C[C@@H](OC(=O)c2cc(OC)c(OC)c(OC)c2)[C@@H]1OC` [DESERPIDINE], the concentration at half-maximal activity (AC50) in experiment [1] was more than 10 µM; in experiment [2] it was more than 10 µM; in experiment [3] it was more than 10 µM; in experiment [4] it was more than 30 µM; on Progesterone receptor, more than 30 µM; in experiment [5], more than 10 µM. Moreover, the AC50 in experiment [6] was more than 10 µM.
For `CC(=O)Oc1cccc2c1C(=O)c1c(OC(C)=O)cc(C(=O)O)cc1C2=O` [DIACEREIN], the AC50 in experiment [1] is 12 µM; in experiment [2], more than 30 µM; in experiment [3] it was more than 10 µM; in experiment [4], more than 30 µM; at Progesterone receptor it was more than 30 µM; in experiment [5] it was 4.8 µM. The concentration at half-maximal activity (AC50) in experiment [6] came out at 23 µM.
On to `CCN1C(=O)NC(c2ccccc2)C1=O` (centres undefined) [ETHOTOIN], for which the AC50 (in experiment [1]; in experiment [2]; in experiment [3]; in experiment [4]; on Progesterone receptor; in experiment [5]) was more than 30 µM throughout. In experiment [6], the AC50 was more than 30 µM.

Source of the values: ChEMBL document CHEMBL5291721, “A preclinical secondary pharmacology resource illuminates target-adverse drug reaction associations of marketed drugs” (Nat Commun, 2023).
